Like-named read-outs stand apart in the source and are kept apart here.
Legend:
osteoblast = assay: Effect on bone formation (osteoblast nodule mineralization, Alizarin red S); assay type: cell-based, ICR mice; conditions: calvarial osteoblast in osteogenic differentiation medium
Experimental: The osteoblast, treated in this experiment, was prepared from the osteoblast as prepared in the above.
The osteoblast, isolated from sequential enzymatic treatment of calvariae from neonated ICR mice, was cultured in α-MEM medium containing 10% FBS for 4˜5 days. The osteoblast was also cultured for 24 hr after seeding the cells on a 12 well plate (10^5 cell/well), and medium was exchanged with the osteogenic differentiation medium containing 10 mM β-glycerophosphate and 50 μg/ml ascorbic acid.
The test substances at the concentration of 0.1 uM and 0.1 nM were added to the above medium for evaluating the effect promoting bone formation. The differentiation medium containing the test substances was exchanged every 3 or 4 days for 14 to 21 days until confirming the nodule mineralization.
The cell was rinsed twice with distilled water, and fixed by the 10% formalin solutions for 30 minutes. Alizarin red S and Von-kossa Solution were treated on the plate for measuring deposited calcium and phosphate in cell matrix, and the activity of the test substances on the bone formation was analyzed by determining stained area.
Additionally, for the purpose of estimating quantitative Arizarin red S in cell matrix, stained Arizarin red S was extracted by treating 10 mM sodium phosphate solution (pH 7.0), containing 10% cetylpyridinium chloride, for 15˜30 minutes in the shaking incubator, and then the amount of the deposited calcium was estimated by calculating the absorbance of the extracted Arizarin red S at 564 nm. […]

[1] = system: osteoclast differentiation; assay: Inhibitory effects on osteoclast differentiation (co-culture of bone marrow cells with osteoblast, TRAP staining); assay type: cell-based, mice; conditions: for inhibition at 1 µM: Mus musculus, Osteoclast, 168 h, read-out: % inhibitory activity on osteoclastogenesis
Method in brief: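 Bone marrow cells from 6–8-week male ddY mice co-cultured with neonatal ICR mouse calvarial osteoblasts in α-MEM/FBS with dexamethasone (10^−7M) and vitamin D3 (10^−8M) for 7 days, compound and medium renewed every 2–3 days. TRAP-positive cells with ≥3 nuclei counted; inhibition given as percent of control.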

ovariectomized ddY mouse = assay: Therapeutic effect in the ovariectomized osteoporetic mouse model (trabecular bone volume of the femur); assay type: in vivo, ddY mice; conditions: 50 mg/kg/day oral gavage for 4 weeks from 4 weeks after ovariectomy, salts (methansulfonic acid or HCl); for change in vivo at 50 mg/kg: Mus musculus, 672 h, read-out: Changes on TBV (% changes vs vehicle control)
Experimental: The therapeutic effects of each benzamidine derivates were evaluated on the ovariectomized ddY mouse. Benzamidine derivates were dosed from 4 weeks after operation for 4 weeks and the changes on the trabecular bone volume (TBV) of the femur were observed via histomorphometry.
Female ddY mice (6-wk old upon receipt, SLC, Japan) were used after acclimatization for 7 days. Animals were allocated 5 per polycarbonate cage in a temperature (20-25° C.) and humidity (30-35%) controlled room. Light:dark cycle was 12 hr:12 hr and feed (Samyang, Korea) and water were supplied free to access.
Salts of benzamidine derivates (Methansulfonic acid or HCl) were used for the test substances of this invention. Test substances are dissolved and/or suspended in injectable distilled water and administered at a dosage volume of 10 ml/kg by oral gavage. All test substances are dosed from 4 weeks after operation for 4 weeks at 50 mg/kg/day.
To induce estrogen-deficient osteoporosis, bilateral ovaries are removed and then closed by routine methods. Operation was conduct under Ketamine hydrochloride and xylazine hydrochloride anesthesia.
The left femur of each mouse were separated at sacrifice, and fixed in 10% neutral buffered formalin (NBF), then decalcified in decalcifying solution (24.4% formic acid, and 0.5N sodium hydroxide) for 5 days (mixed decalcifying solution was exchanges once a day for 5 days). After the dexalcification, the femur was embedded in paraffin, sectioned (3˜4 μm) and stained with hematoxylin-eosin stain.
TBV was calculated using automated image analysis (analySIS Image Processing; SIS, Germany) under magnification of ×200 in the uniform area of trochlea epiphyseal regions (growth plate regions were excluded) of prepared histological specimens. TBV was calculated as percentage (%) levels.
The changes of TBV compared to that of vehicle control are calculated as following Equation 1 to help the understanding of the efficacy of test substances. Percentage changes=[((TBV of a−TBV of b)/TBV of b)×100] Equation 1

[2] = 1 μm, co-culture of bone marrow cells and osteoblast, 7 days, TRAP-positive osteoclasts versus controls
[3] = 1 m, co-culture of bone marrow cells and osteoblast, 7 days, TRAP-positive osteoclasts versus controls

Row | SMILES | melting point [°C] | bone forming activity (%) (osteoblast; 0.1 nM) | bone forming activity (%) (osteoblast; 0.1 μM) | inhibition at 1 µM [1, 2] [%] | other results
1 | N=C(NO)c1ccc(OCCCCCOc2ccc(-c3csc(-c4cccnc4)n3)cc2)cc1 [Example 7, N-hydroxy-4-(5-[4-(2-pyridin-3-yl-1,3-thiazol-4-yl)phenoxy]pentoxy)-benzamidine] | 149 to 154 | 1.24 | 9.61 | 94.5 | 
2 | CCCCCc1nc(-c2ccc(OCCCCCOc3ccc(C(=N)NO)cc3)cc2)cs1 [Example 9, N-hydroxy-4-(5-[4-(2-pentyl-1,3-thiazol-4-yl)phenoxy]pentoxy)-benzamidine] |  | 6.14 | 13.68 |  | inhibition at 1 µM [1]: 100%
3 | Cc1sc(C2CCCCC2)nc1-c1ccc(OCCCCCOc2ccc(C(=N)NO)cc2)cc1 [Example 14, N-hydroxy-4-(5-[4-(2-cyclohexyl-5-methyl-1,3-thiazol-4-yl)phenoxy]pentoxy)-benzamidine] |  | 10.56 | 12.06 | 89.2 | 
4 | CCc1sc(-c2cccnc2)nc1-c1ccc(OCCCCCOc2ccc(C(=N)NO)cc2)cc1 [Example 21, N-hydroxy-4-(5-[4-(5-ethyl-2-pyridin-3-yl-1,3-thiazol-4-yl)phenoxy]pentoxy)-benzamidine] | 146 to 153 |  |  |  | change in vivo at 50 mg/kg (ovariectomized ddY mouse): 75.5%
5 | CCc1sc(C2CCCCC2)nc1-c1ccc(OCCCCCOc2ccc(C(=N)NO)cc2)cc1 [Example 22, N-hydroxy-4-(5-[4-(2-cyclohexyl-5-ethyl-1,3-thiazol-4-yl)phenoxy]pentoxy)-benzamidine] |  | 10.33 | 8.56 | 92.6 | 
6 | CCCCCc1nc(-c2ccc(OCCCCCOc3ccc(C(=N)NO)cc3)cc2)c(CC)s1 [Example 23, N-hydroxy-4-(5-[4-(5-ethyl-2-pentyl-1,3-thiazol-4-yl)phenoxy]pentoxy)-benzamidine] | 79 to 88 |  |  |  | change in vivo at 50 mg/kg (ovariectomized ddY mouse): 28%; inhibition at 1 µM [1]: 47.7%
7 | CCNc1nc(-c2ccc(OCCCCCOc3ccc(C(=N)NO)cc3)cc2)c(CC2CCCC2)s1 [Example 110, N-hydroxy-4-(5-[4-(5-cyclopentylmethyl-2-ethylamino-1,3-thiazol-4-yl)phenoxy]pentoxy)-benzamidine] |  | 9.76 | 9.37 |  | inhibition at 1 µM [1, 3]: 100%
8 | CCN(CCN1CCOCC1)c1nc(-c2ccc(OCCCCCOc3ccc(C(=N)NO)cc3)cc2)c(C)s1 [Example 124, N-hydroxy-4-(5-[4-(2-(ethyl-1-(2-morpholinoethyl)-amino)-5-methyl-1,3-thiazol-4-yl)phenoxy]pentoxy)-benzamidine] |  | 6.44 | 12.9 |  | Changes on TBV (% changes vs vehicle control) (ovariectomized ddY mouse): 72.82%; % inhibitory activity on osteoclastogenesis ([1]; co-culture of bone marrow cells and osteoblast, 7 days, TRAP-positive osteoclasts versus controls): 87.9%
9 | CCc1sc(N(C)CCO)nc1-c1ccc(OCCCCCOc2ccc(C(=N)NO)cc2)cc1 [Example 129, N-hydroxy-4-(5-[4-(5-ethyl-2-((2-hydroxyethyl)-methyl-amino)-1,3-thiazol-4-yl)phenoxy]pentoxy)-benzamidine] |  | 11.18 | 11.54 |  | inhibition at 1 µM [1, 3]: 64.7%

Reference: patent publication US8178688B2, “Benzamidine derivatives, process for the preparation thereof and pharmaceutical composition comprising the same” (Dong Wha Pharmaceutical Co., Ltd., priority 2004, dated 2012)
